Measured values: US20250197407A1 (Jazz Pharmaceuticals Ireland Limited, priority 2022, published 2025)

Each molecule was assayed against SOS1/KRAS WT (Homo sapiens (Human), UniProt Q07889) (assay: SOS1/KRAS WT HTRF binding assay (FRET-based protein-protein interaction)). Details: inhibition of His6-SOS1 (aa564-1049, 40 nM) binding to GST-KRAS-WT (aa1-188, 40 nM); at least two independent replicates; read-out: SOS1/KRAS WT HTRF Binding assay pIC50 (converted).
Chain of SOS1/KRAS WT (Q07889 564-1049): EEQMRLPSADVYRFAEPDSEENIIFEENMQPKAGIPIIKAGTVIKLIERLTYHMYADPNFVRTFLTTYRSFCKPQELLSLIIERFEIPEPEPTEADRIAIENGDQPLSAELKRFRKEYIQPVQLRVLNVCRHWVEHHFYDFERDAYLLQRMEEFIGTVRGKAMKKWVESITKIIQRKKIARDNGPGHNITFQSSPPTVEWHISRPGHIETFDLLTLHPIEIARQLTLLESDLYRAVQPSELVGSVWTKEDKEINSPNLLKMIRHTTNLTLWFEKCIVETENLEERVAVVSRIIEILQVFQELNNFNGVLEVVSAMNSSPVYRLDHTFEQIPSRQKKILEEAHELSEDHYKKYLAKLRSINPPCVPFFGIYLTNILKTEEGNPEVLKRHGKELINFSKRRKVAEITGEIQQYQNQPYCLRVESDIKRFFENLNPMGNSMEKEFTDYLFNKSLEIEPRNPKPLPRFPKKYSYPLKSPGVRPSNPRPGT
Summary of the method: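 Time-resolved FRET at 665 nm, read 4 hr after adding anti-GST-Eu(K) (4 nM) and anti-6His-XL665 (20 nM), tracked SOS1(aa564-1049)–KRAS WT(aa1-188) association. Both proteins were at 40 nM, pre-incubated 60 min at room temperature with compound. Max/min signals came from 0.05% DMSO and 10 μM reference, with four-parameter logistic IC50.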
In the case of Cc1nnc(N[C@H](C)c2cccc(C(F)(F)C(C)(C)O)c2)c2cc3c(cc12)C(C)(C)C(=O)N3C [Compound 77, 1,3,3,5-tetramethyl-8-[[(1R)-1-[3-(1,1-difluoro-2-hydroxy-2-methyl-propyl)phenyl]ethyl]amino]pyrrolo [2,3-g]phthalazin-2-one], the IC50 is reported as 11.2 nM. In the case of CCOC1(C)C(=O)N(C)c2cc3c(C)nnc(N[C@H](C)c4cccc(C(F)(F)CO)c4F)c3cc21 (stereo partly drawn) [Compound 201, 3-ethoxy-1,3,8-trimethyl-5-[[(1R)-1-[3-(1,1-difluoro-2-hydroxy-ethyl)-2-fluoro-phenyl]ethyl]amino]pyrrolo[3,2-g]phthalazin-2-one], the IC50 is reported as 18.2 nM. Work on Cc1nnc(N[C@H](C)c2cccc(C(F)(F)F)c2)c2cc3c(cc12)n(C)c(=O)n3C1CC1 [Compound 13, 3-cyclopropyl-1,8-dimethyl-5-[[(1R)-1-[3-(trifluoromethyl)phenyl]ethyl]amino]imidazo[4,5-g]phthalazin-2-one] yielded an IC50 of 11.5 nM. Cc1c([C@@H](C)Nc2nnc(C)c3cc4c(cc23)N(C2CC2)C(=O)C4(C)C)cccc1C(F)(F)C(C)(C)O [Compound 127, 1-cyclopropyl-3,3,5-trimethyl-8-[[(1R)-1-[3-(1,1-difluoro-2-hydroxy-2-methyl-propyl)-2-methyl-phenyl]ethyl]amino]pyrrolo[2,3-g]phthalazin-2-one] showed an IC50 of 12.9 nM. CCC1(OC)C(=O)N(C)c2cc3c(N[C@H](C)c4cccc(C(F)(F)C(C)(C)O)c4F)nnc(C)c3cc21 (stereo partly drawn) [Compound 204, 3-ethyl-3-methoxy-1,5-dimethyl-8-[[(1R)-1-[3-(1,1-difluoro-2-hydroxy-2-methyl-propyl)-2-fluoro-phenyl]ethyl]amino]pyrrolo[2,3-g]phthalazin-2-one] showed an IC50 of 10 nM. In the case of Cc1nnc(N[C@H](C)c2cccc(C(F)(F)F)c2)c2cc3c(cc12)OCCC(=O)N3C [Compound 42, 5,10-dimethyl-7-[[(1R)-1-[3-(trifluoromethyl)phenyl]ethyl]amino]-2,3-dihydropyridazino[4,5-h][1,5]benzoxazepin-4-one], the IC50 is reported as 34.7 nM. With COC1(C)C(=O)N(C)c2cc3c(N[C@H](C)c4cccc(C(F)(F)C(C)(C)O)c4C)nnc(C)c3cc21 (stereo partly drawn) [Compound 102, 3-methoxy-1,3,5-trimethyl-8-[[(1R)-1-[3-(1,1-difluoro-2-hydroxy-2-methyl-propyl)-2-methyl-phenyl]ethyl]amino]pyrrolo[2,3-g]phthalazin-2-one] the IC50 was 8.32 nM. With Cc1nnc(N[C@H](C)c2cccc3c(F)cn(C)c23)c2cc3c(cc12)n(C)c(=O)n3C [Compound 61, 1,3,8-trimethyl-5-[[(1R)-1-(3-fluoro-1-methyl-indol-7-yl)ethyl]amino]imidazo[4,5-g]phthalazin-2-one] the IC50 was 100 nM. CCOC1(C)C(=O)N(C2CC2)c2cc3c(N[C@H](C)c4cccc(C(F)(F)C(C)(C)O)c4F)nnc(C)c3cc21 (stereo partly drawn) [Compound 163, 1-cyclopropyl-3-ethoxy-3,5-dimethyl-8-[[(1R)-1-[3-(1,1-difluoro-2-hydroxy-2-methyl-propyl)-2-fluoro-phenyl]ethyl]amino]pyrrolo[2,3-g]phthalazin-2-one] showed an IC50 of 10.7 nM.
